Each structure is given as a SMILES string. Where a name gives a salt, the structure may show the parent alone. Some results are limits rather than exact numbers.

The record followed here is patent US7803795B2, “Phthalazine derivatives as parp inhibitors” (Janssen Pharmaceutica N.V., priority 2004, dated 2010).

The target of one data set is T1, PARP-1 enzyme (Homo sapiens, UniProt P09874).
T1 construct: made in house
The experiment in a line: in vitro filtration assay for PARP-1 inhibitory activity. To be noted: [32P]-NAD, histones, nicked DNA; dose-response 10^-5 M to 10^-8 M; read-out: in vitro filter assay PARP-1 pIC50 (converted). The format is biochemical. The procedure: In Vitro Filtration Assay for PARP-1 Inhibitory Activity
Compounds of the present invention were tested in an in vitro filtration assay assessing PARP-1 activity (triggered in the presence of nicked DNA) by means of its histone poly (ADP-ribosylation activity using [^32P]-NAD as ADP-ribosyl donor. The radioactive ribosylated histones were precipitated by trichloroacetic acid (TCA) in 96-well filterplates and the incorporated [^32P] measured using a scintillation counter
A mixture of histones (stock solution: 5 mg/ml in H2O), NAD^+ (stock solution: 100 mM in H2O), and [^32P]-NAD^+ in incubation buffer (50 mM Tris/HCl, pH 8; 0.2 mM DTT; 4 mM MgCl2) was made. A mixture of the PARP-1 enzyme (5-10 μg/ml) and nicked DNA was also made. The nicked DNA was prepared as described in the in vitro SPA for PARP-1 inhibitory activity. Seventy-five μl of the PARP-1 enzyme/DNA mixture together with 1 μl of compound in DMSO and 25 μl of histones-NAD^+/[^32P]-NAD^+ mixture was added per well of a 96-well filterplate (0.45 μm, supplier Millipore). The final concentrations in the incubation mixture were 2 μg/ml for the histones, 0.1 mM for the NAD^+, […] (0.5 μC) for the [^32P]-NAD^+ and 2 μg/ml for the nicked DNA. Plates were incubated for 15 min. at room temperature and the reaction was terminated by the addition of 10 μl ice cold 100% TCA followed by the addition of 10 μl ice-cold BSA solution (1% in H2O). The protein fraction was allowed to precipitate for 10 min. at 4° C. and plates were vacuum filtered. The plates were subsequently washed with, for each well, 1 ml of 10% ice cold TCA, 1 ml of 5% ice cold TCA and 1 ml of 5% TCA at room temperature. Finally 100 μl of scintillation solution (Microscint 40, Packard) was added to each well and the plates were transferred to a TopCountNXT™ (supplier: Packard) for scintillation counting and values were expressed as counts per minute (cpm). For each experiment, controls (containing PARP-1 enzyme and DMSO without compound), a blank incubation (containing DMSO but no PARP-1 enzyme or compound) and samples (containing PARP-1 enzyme and compound dissolved in DMSO) were run in parallel. All compounds tested were dissolved and eventually further diluted in DMSO. In first instance, compounds were tested at a concentration of 10^−5M. […] In each test, the blank value was subtracted from both the control and the sample values. The control sample represented maximal PARP-1 enzyme activity. For each sample, the amount of cpm was expressed as a percentage of the mean cpm value of the controls. When appropriate, IC50-values (concentration of the drug, needed to reduce the PARP-1 enzyme activity to 50% of the control) were computed using linear interpolation between the experimental points just above and below the 50% level. Herein the effects of test compounds are expressed as pIC50 (the negative log value of the IC50-value). As a reference compound, 4-amino-1,8-naphthalimide was included to validate the filtration assay.

The target of another data set is T2, TANK-2 enzyme (Homo sapiens, UniProt Q9H2K2).
T2 construct: His tag (inferred from capture on a Ni-coated plate); made in house
T2 sequence (Q9H2K2 1-1166): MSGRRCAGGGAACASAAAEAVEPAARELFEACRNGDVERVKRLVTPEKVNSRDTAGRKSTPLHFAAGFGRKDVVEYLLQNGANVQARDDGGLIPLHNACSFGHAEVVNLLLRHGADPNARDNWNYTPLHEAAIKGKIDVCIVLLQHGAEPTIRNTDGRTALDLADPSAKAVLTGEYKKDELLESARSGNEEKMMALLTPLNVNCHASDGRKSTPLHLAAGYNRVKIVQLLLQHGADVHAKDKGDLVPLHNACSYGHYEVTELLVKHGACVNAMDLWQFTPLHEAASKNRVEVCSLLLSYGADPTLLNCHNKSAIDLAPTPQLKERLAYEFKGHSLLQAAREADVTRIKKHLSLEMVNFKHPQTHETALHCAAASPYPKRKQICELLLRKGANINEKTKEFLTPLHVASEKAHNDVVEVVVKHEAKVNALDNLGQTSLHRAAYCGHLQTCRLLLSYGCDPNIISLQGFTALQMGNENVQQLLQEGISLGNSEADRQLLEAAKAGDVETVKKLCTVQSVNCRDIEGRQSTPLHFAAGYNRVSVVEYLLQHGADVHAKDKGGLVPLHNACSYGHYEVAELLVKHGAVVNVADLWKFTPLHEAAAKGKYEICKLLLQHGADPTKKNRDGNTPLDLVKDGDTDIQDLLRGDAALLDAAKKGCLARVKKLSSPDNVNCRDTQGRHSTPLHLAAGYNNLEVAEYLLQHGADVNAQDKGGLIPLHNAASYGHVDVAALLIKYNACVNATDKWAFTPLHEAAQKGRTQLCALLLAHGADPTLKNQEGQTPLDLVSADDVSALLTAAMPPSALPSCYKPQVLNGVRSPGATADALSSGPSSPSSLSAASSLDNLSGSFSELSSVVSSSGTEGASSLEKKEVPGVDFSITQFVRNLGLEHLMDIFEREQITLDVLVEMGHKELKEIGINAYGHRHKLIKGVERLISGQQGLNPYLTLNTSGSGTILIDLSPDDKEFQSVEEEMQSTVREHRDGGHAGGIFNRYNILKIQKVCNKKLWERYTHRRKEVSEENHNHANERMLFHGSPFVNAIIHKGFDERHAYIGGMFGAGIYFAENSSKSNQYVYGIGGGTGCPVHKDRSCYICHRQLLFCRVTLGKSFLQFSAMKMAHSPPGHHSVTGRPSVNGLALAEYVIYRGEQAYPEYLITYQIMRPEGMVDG
Kind of data set: in vitro Scintillation Proximity Assay (SPA) for TANK-2 inhibitory activity. The format is biochemical. The procedure: In Vitro Scintillation Proximity Assay (SPA) for Tank-2 Inhibitory Activity
Compounds of the present invention were tested in an in vitro assay based on SPA technology with Ni Flash plates (96 or 384 well).
In principle, the assay relies upon SPA technology for the detection of auto-poly(ADP-ribosylation of TANK-2 protein using [^3H]-nicotinamide adenine dinucleotide ([^3H]-NAD^+) as ADP-ribosyl donor.
A stock solution of [^3H]-NAD^+/NAD was made by adding 64.6 μl of [^3H]-NAD^+ (0.1 mCi/ml, supplier: Perkin Elmer) and 46.7 μl NAD-stock (10.7 mM, stored at −20° C., supplier Roche) to 1888.7 μl assay buffer (60 mM Tris/HCl, pH 7.4; 0.9 mM DTT; 6 mM MgCl2). The TANK-2 enzyme was produced as described in EP1238063.60 μl of assay buffer, together with 1 μl of compound in DMSO, 20 μl of [^3H]-NAD^+/NAD and 20 μl of TANK-2 enzyme (final concentration 6 μg/ml) was added per well into a 96-well Ni-coated flash plate (Perkin Elmer). After incubation of the mixture for 120 min. at room temperature, the reaction was terminated by adding 60 μl of stopsolution (42.6 mg NAD in 6 ml H2O). The plates were covered with a plate sealer and placed in a TopCountNXT™ (Packard) for scintillation counting. Values were expressed as counts per minute (cpm). For each experiment, controls (containing TANK-2 enzyme and DMSO without compound), a blank incubation (containing DMSO but no TANK-2 enzyme or compound) and samples (containing TANK-2 enzyme and compound dissolved in DMSO) were run in parallel. All compounds tested were dissolved and eventually further diluted in DMSO. […] In each test, the blank value was subtracted from both the control and the sample values. The control sample represented maximal TANK-2 enzyme activity. For each sample, the amount of cpm was expressed as a percentage of the mean cpm value of the controls. When appropriate, IC50-values (concentration of the drug, needed to reduce the TANK-2 enzyme activity to 50% of the control) were computed using linear interpolation between the experimental points just above and below the 50% level. Herein the effects of test compounds are expressed as pIC50 (the negative log value of the IC50-value). As reference compounds, 3-aminobenzamide and 4-amino-1,8-naphthalimide were included to validate the SPA assay. Herein the assay was described using 96-well plates. In the assay using 384-well plates the same final concentrations were used and volumes were adapted.

T1 sequence (P09874 whole entry): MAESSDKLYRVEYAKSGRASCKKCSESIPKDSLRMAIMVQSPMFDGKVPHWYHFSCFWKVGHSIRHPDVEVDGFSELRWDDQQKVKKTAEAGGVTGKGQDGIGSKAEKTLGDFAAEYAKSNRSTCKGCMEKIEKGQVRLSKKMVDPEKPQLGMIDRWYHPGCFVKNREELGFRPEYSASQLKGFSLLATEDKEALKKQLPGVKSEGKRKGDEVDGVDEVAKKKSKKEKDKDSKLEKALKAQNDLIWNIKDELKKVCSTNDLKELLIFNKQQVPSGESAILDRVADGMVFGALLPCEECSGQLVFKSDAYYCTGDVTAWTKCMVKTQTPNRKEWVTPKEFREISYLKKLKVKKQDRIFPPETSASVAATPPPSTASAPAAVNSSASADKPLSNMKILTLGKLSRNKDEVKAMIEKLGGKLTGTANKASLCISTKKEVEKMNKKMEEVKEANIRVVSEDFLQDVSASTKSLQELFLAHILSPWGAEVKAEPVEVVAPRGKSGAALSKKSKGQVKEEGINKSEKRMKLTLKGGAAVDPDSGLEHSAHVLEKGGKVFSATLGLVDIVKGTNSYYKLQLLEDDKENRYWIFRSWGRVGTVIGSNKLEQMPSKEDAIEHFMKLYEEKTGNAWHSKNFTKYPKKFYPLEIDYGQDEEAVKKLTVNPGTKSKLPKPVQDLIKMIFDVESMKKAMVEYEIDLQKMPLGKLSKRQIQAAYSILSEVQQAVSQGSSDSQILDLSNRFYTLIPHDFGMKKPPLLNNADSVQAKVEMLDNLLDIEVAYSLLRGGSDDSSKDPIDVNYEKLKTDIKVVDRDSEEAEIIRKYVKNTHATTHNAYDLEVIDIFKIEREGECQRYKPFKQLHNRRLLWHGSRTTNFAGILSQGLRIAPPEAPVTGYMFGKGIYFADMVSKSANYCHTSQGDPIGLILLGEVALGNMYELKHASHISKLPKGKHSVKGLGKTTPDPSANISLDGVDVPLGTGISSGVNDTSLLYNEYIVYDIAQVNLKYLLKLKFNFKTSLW

As usually defined, the melting point is the temperature of the solid-liquid transition. For the molecule `O=c1[nH]nc(N[C@@H]2C[C@H]3CC[C@@H](C2)N3)c2ccccc12` (as salt: HBr) [Compound 15], the melting point was above 299 °C. On the same count and under the same terms, with `Clc1nnc(NC2CCN(Cc3ccccc3)C2)c2ccccc12` (stereo not drawn) (as salt: HCl) (hydrate or solvate) [Compound 12] the figure was 171.8 °C. Same read-out and setting: under `Nc1ccc2c(=O)[nH]nc(NC3CCNCC3)c2c1` (as salt: HCl) (hydrate or solvate) [Compound 14] stands above 300 °C; under `O=c1[nH]nc(C2CCN(CCCOc3ccc(F)cc3)CC2)c2ccccc12` (as salt: HCl) [Compound 13], 227.6 °C; under `O=c1[nH]nc(N[C@@H]2C[C@H]3CC[C@@H](C2)N3CCCC(c2ccc(F)cc2)c2ccc(F)cc2)c2ccccc12` (hydrate or solvate) [Compound 3], 164.4 °C. On to `O=c1[nH]nc(C2CCN(C[C@H](O)[C@@H]3CCc4ccccc4O3)CC2)c2ccccc12` (relative stereo) [Compound 28], for which the IC50 on PARP-1 enzyme is 45.4 nM. Consider `O=c1[nH]nc(N[C@H]2CCN[C@@H](Cc3ccccc3)C2)c2ccccc12` (single isomer, unassigned) [Compound 35], for which the IC50 at PARP-1 enzyme is 177 nM; on TANK-2 enzyme, above 10000 nM. For `Nc1ccc2c(=O)[nH]nc(NC3CCNCC3)c2c1` [Compound 14], in that order: 766 nM and above 10000 nM. The matching figures for `O=c1[nH]nc(C2CCN(CC(O)COc3ccc(F)c(F)c3)CC2)c2ccccc12` (stereo not drawn) [Compound 26]: 17.3 nM and above 10000 nM. For `NC1CCN(c2n[nH]c(=O)c3ccccc23)CC1` [Compound 31], in that order: 119 nM and above 10000 nM. Regarding `N#CCN1CCN(c2n[nH]c(=O)c3ccccc23)CC1` [Compound 32], the IC50 was 109 nM at PARP-1 enzyme and 9250 nM against TANK-2 enzyme. Turning to `NCCN1CCC(Nc2n[nH]c(=O)c3ccccc23)CC1` [Compound 33], the IC50 was 154 nM on PARP-1 enzyme and above 10000 nM on TANK-2 enzyme.

Regarding `O=c1[nH]nc(NCC2CCNCC2)c2ccccc12` [Compound 36], the values for the IC50 at PARP-1 enzyme and against TANK-2 enzyme were 83.8 nM and 3130 nM, respectively. For `O=c1[nH]nc(NCCC2CCNCC2)c2ccccc12` [Compound 37], in that order: 61.8 nM and above 10000 nM. For `O=c1[nH]nc(NC2CC(Cc3ccccc3)NC(Cc3ccccc3)C2)c2ccccc12` (stereo not drawn) [Compound 38], in that order: 148 nM and above 10000 nM. For `O=c1[nH]nc(NC2CCNCC2)c2cc(Cl)ccc12` [Compound 39], the IC50 was 213 nM on PARP-1 enzyme and above 10000 nM at TANK-2 enzyme. For `O=c1[nH]nc(NC2CCNCC2)c2cccc([N+](=O)[O-])c12` [Compound 40], in that order: 217 nM and above 10000 nM. Take `O=c1[nH]nc(NC2CCNCC2)c2ccccc12` [Compound 41]: the IC50 on PARP-1 enzyme was 37.7 nM; against TANK-2 enzyme, above 10000 nM. For `O=c1[nH]nc(NCCNC2CCN(Cc3ccccc3)CC2)c2ccccc12` [Compound 42], in that order: 179 nM and above 10000 nM. For `CCOC(=O)N1CCC(CCNc2n[nH]c(=O)c3ccccc23)CC1` [Compound 43], in that order: 56.8 nM and above 10000 nM. For `O=c1[nH]nc(N2CCC(NCc3ccccc3)CC2)c2ccccc12` [Compound 45], in that order: 109 nM and 5430 nM. Regarding `CC(C)(C)OC(=O)N1CCC(CNc2n[nH]c(=O)c3ccccc23)CC1` [Compound 47], the IC50 on PARP-1 enzyme was 182 nM; on TANK-2 enzyme it was 6370 nM. For `CN(c1cc2ccccc2s1)C1CCN(c2n[nH]c(=O)c3ccccc23)CC1` [Compound 54], the IC50 on PARP-1 enzyme is 91.8 nM. As to `O=c1[nH]nc(C2CCN(c3ccc(Cl)nn3)CC2)c2ccccc12` [Compound 62], the IC50 at PARP-1 enzyme was 38.6 nM. Same read-out and setting: with `COc1ccc(CCN2CCC(c3n[nH]c(=O)c4ccccc34)CC2)cc1` [Compound 64] the figure was 29.2 nM. On to `FC(F)(F)c1cccc(N2CCN(c3nnc(Cl)c4ccccc34)CC2)c1` [Compound 79], for which the IC50 against TANK-2 enzyme is above 10000 nM. On the same count and under the same terms, with `Clc1cccc(N2CCN(c3nnc(Cl)c4ccccc34)CC2)c1` [Compound 80] the figure was above 10000 nM. On the same count and under the same terms, with `Cc1cccc(N2CCN(c3nnc(Cl)c4ccccc34)CC2)c1` [Compound 81] the figure was 2790 nM.

For the molecule `COc1ccccc1N1CCN(c2nnc(Cl)c3ccccc23)CC1` [Compound 84], the IC50 on TANK-2 enzyme is above 10000 nM.
